According to patent publication US5616615A, “Enaminone esters” (priority 1995, dated 1997):
“Also recorded” adds a separate entry of the source. Like-named read-outs stand apart in the source and are kept apart here.

Columns and labels:
seizures = assay: Anticonvulsant evaluation (ASP phase I / overall); type: in vivo, mice; conditions: for minimal effective dose: Mus musculus, ip, Phase I, read-out: ASP Classification; for activity compared with benzylamine counterpart: 27 vs 16, 28 vs 17, 29 vs 20; for anticonvulsant activity / phase I evaluations: mouse, in vivo; for activity compared with 12: substituted benzylamines
Method: The first phase of the ADD Program involved performing tests on male Carworth Farms #1 mice. […] Three tests were performed:
(§1) Maximal electroshock seizures are elicited with a 60-cycle alternating current of 50 mA intensity (5-7 times that necessary to elicit minimal electroshock seizures) delivered via corneal electrodes for 0.2 seconds. A drop of 0.9% saline is instilled in the eye prior to application of the electrodes in order to […].
The animal is observed for 30 minutes.

[1] = tested on: Maximal electroshock seizures; assay: Phase VI oral MES test, rats; type: in vivo; conditions: oral, 50 mg/kg; for responders at 50 mg/kg: Rattus norvegicus, read-out: MES, animals protected/tested (converted)
Text: as §1
(§2) This oral screen is designated as phase VI.

in vivo = conditions: rat, po, 50 mg/kg
Text: as §2

[2] = tested on: Subcutaneous Pentylenetetrazol seizure; assay: sc Met subcutaneous pentylenetetrazol (Metrazol) seizure test, mice; type: in vivo; conditions: for responders at 100 mg/kg / responders at 300 mg/kg / responders at 30 mg/kg: Mus musculus, sc; for responders at 100 mg/kg / responders at 300 mg/kg: read-out: scMet, animals protected/tested (converted); for responders at 30 mg/kg: read-out: scMet, animals protected/tested; for scMet evaluation: Phase I
[3] = tested on: Maximal electroshock seizures; assay: MES maximal electroshock seizure test, mice ip; type: in vivo; conditions: for responders at 10 mg/kg / responders at 100 mg/kg / responders at 300 mg/kg / responders at 30 mg/kg: Mus musculus, ip; for responders at 10 mg/kg: mice ip; for responders at 10 mg/kg / responders at 100 mg/kg: read-out: MES, animals protected/tested (converted); for responders at 300 mg/kg / responders at 30 mg/kg: read-out: MES, animals protected/tested
Method: Three tests were performed:
1. MES--Electroshock Seizure Test
as §1

[4] = 0.5 h, 300 mg/kg, 30 min, second trial

SMILES	minimal effective dose (seizures)	responders at 100 mg/kg ([2]; 0.5 h, 100 mg/kg, 30 min)	responders at 300 mg/kg ([2]; 0.5 h, 300 mg/kg, 30 min)	responders at 100 mg/kg ([2]; 4 h, 100 mg/kg, 4 h)	responders at 300 mg/kg ([2]; 4 h, 300 mg/kg, 4 h)	responders at 100 mg/kg ([3]; 0.5 h, 100 mg/kg, 30 min)	responders at 300 mg/kg ([3]; 0.5 h, 300 mg/kg, 30 min)	responders at 100 mg/kg ([3]; 4 h, 100 mg/kg, 4 h)	responders at 300 mg/kg ([3]; 4 h, 300 mg/kg, 4 h)	anticonvulsant activity (seizures)	further results
COC(=O)C1C(=O)C=C(Nc2ccc(Cl)cn2)CC1C (stereo not drawn) [Compound 116]	< 100 mg/kg	0%	100%	0%	0%	66.7%	100%	0%	0%		responders at 50 mg/kg ([1]; 0.5 h, 0.50 h): 100%; responders at 50 mg/kg ([1]; 0.25 h): 100%; responders at 50 mg/kg ([1]; 1.00 h): 100%; responders at 50 mg/kg ([1]; 2.00 h): 100%; responders at 50 mg/kg ([1]; 4.00 h): 100%; Tox, animals toxic/tested (in vivo): 0/4; responders at 300 mg/kg [2, 4]: 75%; responders at 10 mg/kg ([3]; 0.25 h, 0.25 h): 75%; responders at 10 mg/kg ([3]; 0.5 h, 0.50 h): 100%; responders at 10 mg/kg ([3]; 1 h, 1.00 h): 50%; responders at 10 mg/kg ([3]; 2 h, 2.00 h): 0%; responders at 10 mg/kg ([3]; 4 h, 4.00 h): 0%; anti-MES protecting ability ([3]; Phase I): showed anti-MES protecting ability
COC(=O)C1C(=O)C=C(Nc2ccc(Cl)cc2)CC1(C)C (stereo not drawn) [Compound 119]	< 100 mg/kg	0%	100%	0%	100%	100%	100%	100%	100%		responders at 50 mg/kg ([1]; 0.5 h, 0.50 h): 75%; responders at 50 mg/kg ([1]; 0.25 h): 100%; responders at 50 mg/kg ([1]; 1.00 h): 100%; responders at 50 mg/kg ([1]; 2.00 h): 100%; responders at 50 mg/kg ([1]; 4.00 h): 100%; Tox, animals toxic/tested (in vivo): 0/4
COC(=O)C1C(=O)C=C(Nc2ccc(C)cc2)CC1C (stereo not drawn) [Compound 28]	< 100 mg/kg		0%		0%		100%		0%	anticonvulsant activity was observed	activity compared with benzylamine counterpart (seizures): activity is enhanced in all cases; responders at 30 mg/kg ([2]; 0.5 h, 30 min, second trial): 0%; responders at 30 mg/kg ([2]; 0.5 h, 30 min): 100%; responders at 30 mg/kg ([2]; 4 h, 4 h): 0%; scMet evaluation [2]: spurious results; responders at 30 mg/kg ([3]; 0.5 h, 30 min): 0%; responders at 30 mg/kg ([3]; 4 h, 4 h): 0%
COC(=O)C1C(=O)C=C(Nc2cc(OC)ccc2OC)CC1C (stereo not drawn) [Compound 31, methyl 4-(2', 5'-dimethoxy)-phenylamino-6-methyl-2-oxo-cyclohex-3-en-1-oate]	< 100 mg/kg	0%	0%	0%	0%	33.3%	100%	0%	0%	anticonvulsant activity was observed	
COC(=O)C1C(=O)C=C(NCc2ccc([N+](=O)[O-])cc2)CC1C (stereo not drawn) [Compound 20]											activity compared with 12 (seizures): only a slight modification in activity
CC1(C)CC(=O)C=C(NCc2ccccc2)C1 [Compound 19]	< 100 mg/kg	0%	0%	0%	0%	33.3%	100%	0%	100%	potent anticonvulsants	
COC(=O)C1C(=O)C=C(NNc2ccccc2)CC1C (stereo not drawn) [Compound 25]	> 100 mg/kg		100%		0%		100%		0%		responders at 300 mg/kg [2, 4]: 0%; scMet evaluation [2]: spurious results
COC(=O)C1C(=O)C=C(NCc2ccc(Cl)cc2)CC1C (stereo not drawn) [Compound 16]	> 100 mg/kg		100%		0%		100%		100%		activity compared with 12 (seizures): only a slight modification in activity; responders at 300 mg/kg [2, 4]: 0%; scMet evaluation [2]: spurious results
CCc1ccc(NC2=CC(=O)C(C(=O)OC)C(C)C2)cc1 (stereo not drawn) [Compound 26]	< 100 mg/kg	0%		0%		66.7%		0%		anticonvulsant activity was observed	
COC(=O)C1C(=O)C=C(Nc2ccccc2)CC1C (stereo not drawn) [Compound 24]										activity was lost; also recorded: inactive	
COC(=O)C1C(=O)C=C(NCc2ccc(C)cc2)CC1C (stereo not drawn) [Compound 17]										inactive	activity compared with 12 (seizures): only a slight modification in activity
COC(=O)C1C(=O)C=C(NCc2ccc(C(=O)O)cc2)CC1C (stereo not drawn) [Compound 18]										inactive	activity compared with 12 (seizures): only a slight modification in activity
COC(=O)C1C(=O)C=C(NCCc2ccccc2)CC1(C)C (stereo not drawn) [Compound 14]	< 100 mg/kg	0%	0%	0%	0%	33.3%	100%	0%	0%		
O=C1C=C(NCc2ccccc2)CCC1 [Compound 153]											MES, animals protected/tested ([1]; 0.25 h): 0/4; MES, animals protected/tested ([1]; 0.50 h): 2/4; MES, animals protected/tested ([1]; 1.00 h): 3/4; MES, animals protected/tested ([1]; 2.00 h): 3/4; MES, animals protected/tested ([1]; 4.00 h): 1/4; scMet, animals protected/tested ([2]; 100 mg/kg, 30 min): 0/1; scMet, animals protected/tested ([2]; 100 mg/kg, 4 h): 0/1; scMet, animals protected/tested ([2]; 300 mg/kg, 30 min): 0/1; scMet, animals protected/tested ([2]; 300 mg/kg, 4 h): 0/1; MES, animals protected/tested ([3]; 100 mg/kg, 30 min): 3/3; MES, animals protected/tested ([3]; 100 mg/kg, 4 h): 0/3; MES, animals protected/tested ([3]; 300 mg/kg, 30 min): 1/1; MES, animals protected/tested ([3]; 300 mg/kg, 4 h): 1/1
COC(=O)C1C(=O)C=C(Nc2ccc(O)cc2)CC1C (stereo not drawn) [Compound 35]										inactive	
COC(=O)C1C(=O)C=C(NN2CCOCC2)CC1C (stereo not drawn) [Compound 34]											phase I evaluations (seizures): neither was active
CC1(C)CC(=O)C=C(Nc2ccc(C(C)(C)C)cc2)C1 [Compound 143]	< 100 mg/kg	20%	20%	0%	0%	0%	0%	0%	0%		
COC(=O)C1C(=O)C=C(Nc2ccc([N+](=O)[O-])cc2)CC1C (stereo not drawn) [Compound 29]	< 100 mg/kg	100%		0%		0%		0%			activity compared with benzylamine counterpart (seizures): activity is enhanced in all cases; responders at 100 mg/kg ([2]; 0.5 h, 100 mg/kg, 30 min, second trial): 0%
COC(=O)C1C(=O)C=C(Nc2cc(C)ccc2OC)CC1C (stereo not drawn) [Compound 30]										anticonvulsant activity was observed	
COC(=O)C1C(=O)C=C(Nc2ccc(C(=O)O)cc2)CC1C (stereo not drawn) [Compound 32]										comparable to inactive 18 in the benzylamine series	
O=C1C=C(NCc2ccccc2)CC(c2ccccc2)C1C(=O)NCc1ccccc1 (stereo not drawn) [Compound 11]										inactive	
COC(=O)C1C(=O)C=C(NN2CCOCC2)CC1C (stereo not drawn) [Compound 33]											phase I evaluations (seizures): neither was active
